Data from US9062043B2, “Fused tricyclic compounds as serine-threonine protein kinase and PARP modulators” (SENHWA BIOSCIENCES, INC., priority 2006, dated 2015).
pIC50: −log10 of the molar value.

Legend:
[1] = molecular target: protein kinases (Homo sapiens, UniProt O15530); assay: Kinase inhibition, percentage of activity at 0.5 μM, standardized radiometric kinase assays; format: biochemical; settings: PDK1(h);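 further: each kinase tested separately, with activity read as 33P-labelled substrate protein captured on filters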
[2] = molecular target: protein kinases (Homo sapiens, UniProt Q02750); assay: as above; format: biochemical; settings: MEK1(h)
[3] = molecular target: protein kinases (Homo sapiens, UniProt P16591); assay: as above; format: biochemical; settings: Fer(h)
[4] = molecular target: protein kinases (Homo sapiens, UniProt P36888); assay: as above; format: biochemical; settings: Flt3(h)
[5] = molecular target: protein kinases (Homo sapiens, UniProt Q14012); assay: as above; format: biochemical; settings: CaMKI(h)
[6] = molecular target: protein kinases (Homo sapiens, UniProt P07948); assay: as above; format: biochemical; settings: Lyn(h)
[7] = molecular target: protein kinases (Homo sapiens, UniProt P51955); assay: as above; format: biochemical; settings: NEK2(h)
[8] = molecular target: protein kinases (Homo sapiens, UniProt Q9H4B4); assay: as above; format: biochemical; settings: Plk3(h)
[9] = molecular target: protein kinases (Homo sapiens, UniProt Q05397); assay: as above; format: biochemical; settings: FAK(h)
[10] = molecular target: protein kinases (Homo sapiens, UniProt Q8IW41); assay: as above; format: biochemical; settings: PRAK(h)
[11] = molecular target: protein kinases (Homo sapiens, UniProt Q99683); assay: as above; format: biochemical; settings: ASK1(h)
[12] = molecular target: protein kinases (Homo sapiens, UniProt P35968); assay: as above; format: biochemical; settings: KDR(h)
[13] = molecular target: protein kinases (Homo sapiens, UniProt P10721); assay: as above; format: biochemical; settings: cKit(h)
[14] = molecular target: protein kinases (Homo sapiens, UniProt P08922); assay: as above; format: biochemical; settings: Ros(h)
[15] = molecular target: protein kinases (Homo sapiens, UniProt P06493); assay: as above; format: biochemical; settings: CDK1/cyclinB(h)
[16] = molecular target: protein kinases (Homo sapiens, UniProt Q14680); assay: as above; format: biochemical; settings: MELK(h)
[17] = molecular target: protein kinases (Homo sapiens, UniProt P43403); assay: as above; format: biochemical; settings: ZAP-70(h)
[18] = molecular target: protein kinases (Homo sapiens, UniProt O15111); assay: as above; format: biochemical; settings: IKKα(h)
[19] = molecular target: protein kinases (Homo sapiens, UniProt P00519); assay: as above; format: biochemical; settings: Abl(h)
[20] = molecular target: protein kinases (Homo sapiens, UniProt P07332); assay: as above; format: biochemical; settings: Fes(h)
[21] = molecular target: protein kinases (Homo sapiens, UniProt P35916); assay: as above; format: biochemical; settings: Flt4(h)
[22] = molecular target: protein kinases (Homo sapiens, UniProt Q04912); assay: as above; format: biochemical; settings: Ron(h)
[23] = molecular target: protein kinases (Homo sapiens, UniProt Q12866); assay: as above; format: biochemical; settings: Mer(h)
[24] = molecular target: protein kinases (Homo sapiens, UniProt P04629); assay: as above; format: biochemical; settings: TrkA(h)
[25] = molecular target: protein kinases (Homo sapiens, UniProt P08069); assay: as above; format: biochemical; settings: IGF-1R(h)
[26] = molecular target: protein kinases (Homo sapiens, UniProt P16234); assay: as above; format: biochemical; settings: PDGFRα(h)
[27] = molecular target: protein kinases (Homo sapiens, UniProt Q9UM73); assay: as above; format: biochemical; settings: ALK(h)
[28] = test system: protein kinases; assay: as above; format: biochemical; settings: MAPK1(h)
[29] = molecular target: protein kinases (Homo sapiens, UniProt O43293); assay: as above; format: biochemical; settings: ZIPK(h)
[30] = molecular target: protein kinases (Homo sapiens, UniProt Q13464); assay: as above; format: biochemical; settings: ROCK-I(h)
[31] = molecular target: protein kinases (Homo sapiens, UniProt P16234, D842V); assay: as above; format: biochemical; settings: PDGFRα(D842V)(h)
[32] = molecular target: protein kinases (Homo sapiens, UniProt Q9UEE5); assay: as above; format: biochemical; settings: DRAK1(h)
[33] = molecular target: protein kinases (Homo sapiens, UniProt P54760); assay: as above; format: biochemical; settings: EphB4(h)
[34] = molecular target: protein kinases (Homo sapiens, UniProt Q13882); assay: as above; format: biochemical; settings: BRK(h)
[35] = molecular target: protein kinases (Homo sapiens, UniProt P12931); assay: as above; format: biochemical; settings: Src(1-530)(h)
[36] = molecular target: protein kinases (Homo sapiens, UniProt P04049); assay: as above; format: biochemical; settings: c-RAF(h)
[37] = molecular target: protein kinases (Homo sapiens, UniProt O43318); assay: as above; format: biochemical; settings: TAK1(h)
[38] = molecular target: protein kinases (Homo sapiens, UniProt P17612); assay: as above; format: biochemical; settings: PKA(h)
[39] = molecular target: recombinant human PIM-1 (Homo sapiens (Human), UniProt P11309); assay: PIM-1 assay (cell-free, radiometric); format: biochemical
Description: The reactions are incubated for 10 min at 30° C., quenched with 100 ul of 0.75% Phosphoric acid, then transferred to and filtered through a Phosphocellulose filter plate (Millipore). After washing each well 5 times with 0.75% Phosphoric acid, Scintilation fluid (15 ul) is added to each well. The residual radioactivity is measured using a […].

[40] = Body weight of tumor-bearing xenograft animals; format: in vivo; settings: BC-PC3 xenograft mice, IV and IP dosing

Chain of protein kinases (Homo sapiens, UniProt P16234, D842V) (P16234 24-1089 D842V limits assumed): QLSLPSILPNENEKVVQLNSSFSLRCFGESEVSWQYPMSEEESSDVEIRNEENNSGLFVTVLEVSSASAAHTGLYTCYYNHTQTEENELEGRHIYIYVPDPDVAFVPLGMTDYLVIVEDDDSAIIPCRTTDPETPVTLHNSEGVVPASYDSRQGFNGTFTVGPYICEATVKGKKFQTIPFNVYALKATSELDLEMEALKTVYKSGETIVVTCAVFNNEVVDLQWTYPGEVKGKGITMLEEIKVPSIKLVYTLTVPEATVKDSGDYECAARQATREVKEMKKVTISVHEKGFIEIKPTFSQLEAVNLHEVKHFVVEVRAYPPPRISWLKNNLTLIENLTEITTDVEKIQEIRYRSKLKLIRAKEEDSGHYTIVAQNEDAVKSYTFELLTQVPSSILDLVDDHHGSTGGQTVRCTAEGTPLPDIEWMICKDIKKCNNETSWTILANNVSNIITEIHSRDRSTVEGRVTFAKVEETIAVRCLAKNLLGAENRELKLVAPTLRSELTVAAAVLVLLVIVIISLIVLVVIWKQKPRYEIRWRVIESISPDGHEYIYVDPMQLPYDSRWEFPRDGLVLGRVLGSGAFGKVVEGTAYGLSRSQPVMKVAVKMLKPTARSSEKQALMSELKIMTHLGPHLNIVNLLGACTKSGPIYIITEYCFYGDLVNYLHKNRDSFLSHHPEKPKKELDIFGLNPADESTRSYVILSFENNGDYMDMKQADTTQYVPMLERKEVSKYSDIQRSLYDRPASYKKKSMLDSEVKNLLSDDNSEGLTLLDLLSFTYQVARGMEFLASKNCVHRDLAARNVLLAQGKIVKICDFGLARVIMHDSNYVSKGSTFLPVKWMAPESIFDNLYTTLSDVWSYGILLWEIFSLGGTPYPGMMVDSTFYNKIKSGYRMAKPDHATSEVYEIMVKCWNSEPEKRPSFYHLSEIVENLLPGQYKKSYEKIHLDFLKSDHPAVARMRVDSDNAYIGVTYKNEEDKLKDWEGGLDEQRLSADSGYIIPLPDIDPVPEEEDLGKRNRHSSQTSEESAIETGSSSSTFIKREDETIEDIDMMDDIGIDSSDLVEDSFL
Chain of protein kinases (Homo sapiens, UniProt P12931) (P12931 2-536 limits assumed): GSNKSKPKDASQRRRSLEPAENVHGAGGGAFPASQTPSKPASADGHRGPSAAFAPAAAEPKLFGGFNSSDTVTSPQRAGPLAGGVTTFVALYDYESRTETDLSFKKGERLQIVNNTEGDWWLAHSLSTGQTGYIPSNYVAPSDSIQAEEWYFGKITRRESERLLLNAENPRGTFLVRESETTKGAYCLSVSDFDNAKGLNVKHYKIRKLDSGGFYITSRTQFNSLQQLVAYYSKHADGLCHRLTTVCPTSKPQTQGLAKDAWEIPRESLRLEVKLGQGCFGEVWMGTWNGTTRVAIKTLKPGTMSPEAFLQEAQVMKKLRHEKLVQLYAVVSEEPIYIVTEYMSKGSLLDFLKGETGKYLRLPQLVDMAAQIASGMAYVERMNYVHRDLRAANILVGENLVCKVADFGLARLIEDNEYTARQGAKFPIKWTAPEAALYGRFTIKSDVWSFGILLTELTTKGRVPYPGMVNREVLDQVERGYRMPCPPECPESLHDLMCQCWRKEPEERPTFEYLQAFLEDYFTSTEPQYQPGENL
Chain of protein kinases (Homo sapiens, UniProt Q05397) (Q05397 2-1052 limits assumed): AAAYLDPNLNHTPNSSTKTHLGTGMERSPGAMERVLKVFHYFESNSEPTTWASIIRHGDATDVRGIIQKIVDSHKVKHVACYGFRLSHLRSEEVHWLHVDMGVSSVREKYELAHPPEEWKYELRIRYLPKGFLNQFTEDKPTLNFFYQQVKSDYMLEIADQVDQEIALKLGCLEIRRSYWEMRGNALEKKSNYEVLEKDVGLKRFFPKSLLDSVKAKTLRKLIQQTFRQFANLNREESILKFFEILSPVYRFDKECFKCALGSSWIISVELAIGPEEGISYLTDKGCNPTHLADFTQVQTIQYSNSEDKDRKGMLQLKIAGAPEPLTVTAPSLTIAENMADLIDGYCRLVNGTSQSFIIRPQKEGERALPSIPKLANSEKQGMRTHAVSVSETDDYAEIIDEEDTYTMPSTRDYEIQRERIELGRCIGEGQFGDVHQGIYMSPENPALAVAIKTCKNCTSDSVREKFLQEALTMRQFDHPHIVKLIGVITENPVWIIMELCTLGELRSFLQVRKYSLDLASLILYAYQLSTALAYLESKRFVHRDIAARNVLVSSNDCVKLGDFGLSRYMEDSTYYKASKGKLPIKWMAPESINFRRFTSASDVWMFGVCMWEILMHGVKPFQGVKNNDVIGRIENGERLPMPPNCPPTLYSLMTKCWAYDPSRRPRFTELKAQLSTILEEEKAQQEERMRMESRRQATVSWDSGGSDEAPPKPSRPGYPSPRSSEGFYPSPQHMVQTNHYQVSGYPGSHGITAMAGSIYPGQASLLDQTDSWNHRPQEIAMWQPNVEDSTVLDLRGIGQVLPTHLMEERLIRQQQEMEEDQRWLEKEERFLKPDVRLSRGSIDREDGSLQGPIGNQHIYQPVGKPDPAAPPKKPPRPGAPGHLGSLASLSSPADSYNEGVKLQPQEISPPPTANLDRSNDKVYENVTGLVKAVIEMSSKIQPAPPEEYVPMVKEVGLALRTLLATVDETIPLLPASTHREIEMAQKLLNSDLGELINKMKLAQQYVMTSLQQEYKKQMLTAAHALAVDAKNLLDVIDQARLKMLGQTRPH
Chain of recombinant human PIM-1 (P11309 whole entry): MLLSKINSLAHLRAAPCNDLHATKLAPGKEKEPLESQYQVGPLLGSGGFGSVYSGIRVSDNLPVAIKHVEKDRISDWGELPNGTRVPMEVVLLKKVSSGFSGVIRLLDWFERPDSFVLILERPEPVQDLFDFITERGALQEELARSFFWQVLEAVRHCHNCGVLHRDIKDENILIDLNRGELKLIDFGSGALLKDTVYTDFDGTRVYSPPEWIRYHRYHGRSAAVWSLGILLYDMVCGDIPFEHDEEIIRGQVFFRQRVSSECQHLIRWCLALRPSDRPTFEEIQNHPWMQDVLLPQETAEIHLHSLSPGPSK
Chain of protein kinases (Homo sapiens, UniProt Q13464) (Q13464 2-1354 limits assumed): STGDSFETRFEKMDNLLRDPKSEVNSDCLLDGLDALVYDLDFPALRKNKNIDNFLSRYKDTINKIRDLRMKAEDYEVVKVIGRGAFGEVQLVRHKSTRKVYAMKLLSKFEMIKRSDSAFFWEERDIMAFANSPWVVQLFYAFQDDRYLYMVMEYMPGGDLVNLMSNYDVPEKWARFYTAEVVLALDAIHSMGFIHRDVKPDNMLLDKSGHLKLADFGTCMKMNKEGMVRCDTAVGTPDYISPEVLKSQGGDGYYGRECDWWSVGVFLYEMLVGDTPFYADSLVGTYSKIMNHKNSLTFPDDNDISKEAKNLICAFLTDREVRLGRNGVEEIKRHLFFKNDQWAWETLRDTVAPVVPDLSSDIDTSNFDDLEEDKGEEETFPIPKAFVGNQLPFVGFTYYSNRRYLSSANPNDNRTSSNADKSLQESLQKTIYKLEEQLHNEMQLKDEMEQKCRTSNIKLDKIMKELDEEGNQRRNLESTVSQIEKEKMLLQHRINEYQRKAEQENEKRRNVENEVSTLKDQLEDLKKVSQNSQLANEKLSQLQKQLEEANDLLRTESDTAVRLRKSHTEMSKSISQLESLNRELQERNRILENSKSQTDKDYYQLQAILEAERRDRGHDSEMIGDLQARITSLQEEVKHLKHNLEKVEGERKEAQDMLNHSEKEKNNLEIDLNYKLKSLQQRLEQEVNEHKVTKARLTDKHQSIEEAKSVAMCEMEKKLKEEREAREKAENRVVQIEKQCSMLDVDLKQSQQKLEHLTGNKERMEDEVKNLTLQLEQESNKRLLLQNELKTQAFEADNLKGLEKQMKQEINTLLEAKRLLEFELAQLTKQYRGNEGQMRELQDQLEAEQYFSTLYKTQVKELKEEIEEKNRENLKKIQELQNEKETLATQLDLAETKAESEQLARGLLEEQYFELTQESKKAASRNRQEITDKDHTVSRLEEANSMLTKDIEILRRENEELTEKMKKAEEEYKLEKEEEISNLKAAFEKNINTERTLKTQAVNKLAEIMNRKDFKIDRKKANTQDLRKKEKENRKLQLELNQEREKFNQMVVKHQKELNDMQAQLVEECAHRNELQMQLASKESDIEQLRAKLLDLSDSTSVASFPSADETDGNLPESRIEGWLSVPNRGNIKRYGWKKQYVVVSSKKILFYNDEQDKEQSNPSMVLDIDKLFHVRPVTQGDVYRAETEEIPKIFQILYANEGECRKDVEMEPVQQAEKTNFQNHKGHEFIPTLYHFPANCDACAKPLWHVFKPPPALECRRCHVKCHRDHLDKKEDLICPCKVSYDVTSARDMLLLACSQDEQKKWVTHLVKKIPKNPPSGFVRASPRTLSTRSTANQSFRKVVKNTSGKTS
Chain of protein kinases (Homo sapiens, UniProt P04629) (P04629 33-796 limits assumed): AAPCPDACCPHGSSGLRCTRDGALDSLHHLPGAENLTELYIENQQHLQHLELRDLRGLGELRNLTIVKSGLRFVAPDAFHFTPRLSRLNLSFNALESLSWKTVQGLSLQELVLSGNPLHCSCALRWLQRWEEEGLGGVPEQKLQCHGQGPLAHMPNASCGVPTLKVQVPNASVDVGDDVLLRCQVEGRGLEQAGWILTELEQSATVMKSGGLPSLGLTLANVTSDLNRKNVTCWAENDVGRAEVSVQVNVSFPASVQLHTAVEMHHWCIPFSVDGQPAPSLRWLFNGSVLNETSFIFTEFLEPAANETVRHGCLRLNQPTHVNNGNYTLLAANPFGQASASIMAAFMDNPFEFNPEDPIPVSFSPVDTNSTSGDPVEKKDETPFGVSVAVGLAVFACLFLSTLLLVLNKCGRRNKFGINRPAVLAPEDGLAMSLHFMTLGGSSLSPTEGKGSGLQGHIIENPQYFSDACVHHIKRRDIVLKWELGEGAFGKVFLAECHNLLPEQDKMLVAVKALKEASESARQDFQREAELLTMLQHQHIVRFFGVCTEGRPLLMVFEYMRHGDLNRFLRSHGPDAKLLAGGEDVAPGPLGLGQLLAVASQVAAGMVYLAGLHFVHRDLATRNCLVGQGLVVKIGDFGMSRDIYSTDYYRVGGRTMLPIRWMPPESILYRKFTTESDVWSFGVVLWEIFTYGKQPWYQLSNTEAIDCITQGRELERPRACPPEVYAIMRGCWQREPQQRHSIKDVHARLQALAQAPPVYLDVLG

C#Cc1cccc(Nc2nc3cc(C(=O)O)ccc3c3cncnc23)c1 [compound A2]
activity at 0.5 µM [1]: 110% | activity at 0.5 µM [2]: 136% | activity at 0.5 µM [3]: 103% | activity at 0.5 µM [4]: 42% | activity at 0.5 µM [5]: 104% | activity at 0.5 µM [6]: 109% | activity at 0.5 µM [7]: 77% | activity at 0.5 µM [8]: 106% | activity at 0.5 µM [9]: 97% | activity at 0.5 µM [10]: 93% | activity at 0.5 µM [11]: 116% | activity at 0.5 µM [12]: 67% | activity at 0.5 µM [13]: 114% | activity at 0.5 µM [14]: 110% | activity at 0.5 µM [15]: 52% | activity at 0.5 µM [16]: 49% | activity at 0.5 µM [17]: 118% | activity at 0.5 µM [18]: 101% | activity at 0.5 µM [19]: 91% | activity at 0.5 µM [20]: 139% | activity at 0.5 µM [21]: -1% | activity at 0.5 µM [22]: 106% | activity at 0.5 µM [23]: 46% | activity at 0.5 µM [24]: 90% | activity at 0.5 µM [25]: 73% | activity at 0.5 µM [26]: 109% | activity at 0.5 µM [27]: 112% | % activity at 0.5 μM [28]: 95% | activity at 0.5 µM [29]: 12% | activity at 0.5 µM [30]: 97% | activity at 0.5 µM [31]: 109% | activity at 0.5 µM [32]: 62% | activity at 0.5 µM [33]: 144% | activity at 0.5 µM [34]: 110% | activity at 0.5 µM [35]: 101% | activity at 0.5 µM [36]: 69% | activity at 0.5 µM [37]: 101% | activity at 0.5 µM [38]: 90% | pIC50 [39]: 6.72 | Body weight (FIG. 4B) [40]: not significantly altering body weight
